This passage reports chromatographic logP and efficacy results from patent publication US20110021572A1, “FUNGICIDE HYDROXIMOYL-TETRAZOLE DERIVATIVES” (priority 2008, published 2011).

Read-outs that look alike come from different tables or passages of the source. Where only a bound is given, the exact number is not on record here.

Series [1] can be described thus: Measurement of logP values by HPLC on reversed phase columns (EEC directive 79/831 Annex V.A8). It is filed as physicochemical.
Another series deals with Phytophthora infestans. It is filed as in vivo. Particulars: tomato plants, preventive, 500 ppm of active ingredient, evaluated 7 days after inoculation.
The next series concerns Plasmopara viticola. In words: Plasmopara test (grapevines)/protective. Particulars: protective, 100 ppm of active ingredient, evaluated 6 days after inoculation. Type of series: in vivo. As to the method: To test for protective activity, young plants are sprayed with the preparation of active compound at the stated rate of application. After the spray coating has dried on, the plants are inoculated with an aqueous spore suspension of Plasmopara viticola and then remain for 1 day in an incubation cabinet at approximately 20° C. and a relative atmospheric humidity of 100%. The plant is subsequently placed for 4 days in a greenhouse at approximately 21° C. and a relative atmospheric humidity of approximately 90%. The plants are then misted and placed for 1 day in an incubation cabinet.

As for `CCCCCOC(=O)Nc1cccnc1CON=C(c1ccccc1)c1nnnn1C` [Example 2, pentyl {2-[({[(1-methyl-1H-tetrazol-5-yl)(phenyl)methylene]amino}oxy)methyl]pyridin-3-yl}carbamate], the chromatographic logP in series [1] (HPLC, pH 2.7, 0.1% formic acid, reported in preparation examples, read-out: logP(HCOOH)) is 3.53. Moreover, the efficacy with Phytophthora infestans and with Plasmopara viticola was no less than 70% in each case.
In series [1] (pH 2.7), `Cn1nnnc1C(=NOCc1ncccc1N1C(=O)c2ccccc2C1=O)c1ccccc1` [Example 13, 2-{2-[({[(1-methyl-1H-tetrazol-5-yl)(phenyl)methylene]amino}oxy)methyl]pyridin-3-yl}-1H-isoindole-1,3(2H)-dione] returned a chromatographic logP of 2.63.
As for `Cn1nnnc1C(=NOCc1ncccc1N)c1ccccc1` [Example 14, 2-[({[(1-methyl-1H-tetrazol-5-yl)(phenyl)methylene]amino}oxy)methyl]pyridin-3-amine], the chromatographic logP in series [1] (pH 2.7) came out at 1.01.
